Legend:
[1] = system: DS3 DNA fragment; experiment: DNA footprinting, DS3 DNA fragment; assay type: binding; details: DS3 DNA sequence
Description: The DNA sequence selectivity profile of the molecules was investigated using a modification of the previously established DNA footprinting assay. Following an overnight incubation of the ligand-DNA complexes, the mixture was mixed with strand separation buffer containing 10 mM EDTA, 10 mM NaOH, 0.1% bromophenol blue, 80% formamide and incubated at 100° C. for 3 min. The mixture was then immediately cooled on ice and run on an 8% denaturing gel.
The preparation of the DS3 DNA fragment (FIG. 5) and the “D” DNA fragment (FIG. 6) has been previously described. Briefly, the sequence which had been cloned into the BamHI site of pUC18 was obtained by cutting with HindIII and EcoRI. Radiolabelled DNA fragments were prepared by filling in the 3′-end of the HindIII site with [α-^32P]dATP using Klenow DNA polymerase (exo-).
The radiolabelled DNA fragment was separated from the remainder of the plasmid DNA on a 6% non-denaturing polyacrylamide gel. The gel (20 cm long, 0.3 mm thick) was run at 400 V in 1×TBE running buffer for about 1-2 h, until the bromophenol blue had run most of the way down the gel. The glass plates were separated and the position of the labelled DNA fragment was established by short (1 min) exposure to an X-ray film. The relevant band was then cut from the gel and the radiolabelled DNA eluted by adding 300 μL 10 mM Tris-HCl, pH 7.5 containing 0.1 mM EDTA and gently agitating overnight at room temperature. The eluted DNA was finally precipitated with ethanol and re-suspended in a suitable volume of 10 mM Tris-HCl, pH 7.5 containing 0.1 mM EDTA buffer so as to give at least 10 counts per second/μL on a hand-held Geiger counter. […]
Footprinting reactions were performed as previously described using the DNA fragments DS3, which contains tracts of AT/GC bases; and using the “D” DNA fragments which represents a random DNA sequence. […] After gel purification, the radiolabelled DNA was dissolved in 10 mM Tris-HCl pH 7.5 containing 0.1 mM EDTA, at a concentration of about 10 c.p.s per μL as determined on a hand held Geiger counter. […]

[2] = system: 5′-[…]-3′ (poly GC) DNA duplex; experiment: FRET DNA melting, poly GC duplex; assay type: binding; details: FRET melting, FIG. 2 bottom panel (poly GC duplex)
Description: (§1) FRET DNA melting studies were undertaken on 15 and 16 using two fluorescently labelled sequences. The sequences (FIG. 1) were designed to represent poly AT and poly GC sequences.
(§2) The short duplexes used in this FRET study are relatively unstable in the duplex form with a melting temperature below 30° C. so that, in the absence of ligand, a large part of the melting occurs below the starting temperature of the experiment. However, it can be observed that 15 stabilizes the duplex form, producing increases in melting temperature with ΔTm values of […] for 5′-AAAAAAAGAAAAAATIT-3′ (FIG. 2, top panel), and ˜25° C. (FIG. 2, bottom panel).
(§3) Oligonucleotides were obtained from ATDbio (Southampton, UK) in lyophilised form. […]
(§4) The reaction mixture was comprised of 4 μL of 250 mM phosphate buffer (final concentration of 50 mM), 4 μL flourophor and 4 μL quencher molecule of the appropriate oligonucleotide for a final concentration of 0.2 μM, 4 μL 5 M sodium chloride (final concentration of 1 M NaCl), and 4 μL of distilled H2O. […] This mixture was analysed without prior annealing.
(§5) Fluorescence melting profiles were measured using a Roche LightCycler using a total reaction volume of 20 μL. […] Annealing steps and melting steps were all recorded and changes in fluorescence were measured at 520 nm. […]

[3] = system: 5′-AAAAAAAGAAAAAATIT-3′ (poly AT) DNA duplex; experiment: FRET DNA melting, poly AT duplex; assay type: binding; details: fragments of 15, FIG. 3; duplex not specified
Description: as §1, §2, §3, §4, §5

[4] = system: calf thymus DNA; details: cited from earlier work

## COc1cc2c(cc1OCCCC(=O)Nc1cc(C(=O)Nc3ccc(-c4cc(C(=O)Nc5ccc(N)cc5)n(C)c4)cc3)n(C)c1)N=C[C@@H]1CCCCN1C2=O [Compound 15, (S)—N-(4-aminophenyl)-4-(4-(4-(4-((2-methoxy-12-oxo-6a,7,8,9,10,12-hexahydrobenzo[e]pyrido[1,2-a][1,4]diazepin-3-yl)oxy)butan-amido)-1-methyl-1H-pyrrole-2-carboxamido)phenyl)-1-methyl-1H-pyrrole-2-carboxamide]
[1]
  DNA binding pattern (footprint): bind to tracts of DNA where a GC base is present
[2]
  ΔTm (increase in melting temperature): ~25 °C

## COc1cc2c(cc1O)N=C[C@@H]1CCCCN1C2=O [Compound 28, (S)-3-Hydroxy-2-methoxy-7,8,9,10-tetrahydrobenzo[e]-pyrido[1,2-a][1,4]diazepin-12(6aH)-one]
[3]
  DNA stabilisation (FRET denaturation): failed to stabilise DNA

## Cn1cc(N)cc1C(=O)Nc1ccc(-c2cc(C(=O)Nc3ccc(N)cc3)n(C)c2)cc1 [Compound 32, 4-Amino-N-(4-(5-((4-aminophenyl)carbamoyl)-1-methyl-1H-pyrrol-3-yl)phenyl)-1-methyl-1H-pyrrole-2-carboxamide]
[3]
  DNA stabilisation (FRET denaturation): failed to stabilise DNA

## Cc1ccc2c(c1O)NC(O)C1CC(/C=C/C(N)=O)=CN1C2=O (centres unmarked) [anthramycin]
[4]
  thermal stabilization (ΔTm): 13.1 °C

Reference: patent US20210371413A1, “POLYCYCLIC AMIDES AS CYTOTOXIC AGENTS” (FEMTOGENIX LIMITED, priority 2018, published 2021)
